Assay [1] concerns the target T1, Peptidyl-glycine alpha-amidating monooxygenase (Homo sapiens, UniProt P19021).
T1 sequence (P19021 whole entry): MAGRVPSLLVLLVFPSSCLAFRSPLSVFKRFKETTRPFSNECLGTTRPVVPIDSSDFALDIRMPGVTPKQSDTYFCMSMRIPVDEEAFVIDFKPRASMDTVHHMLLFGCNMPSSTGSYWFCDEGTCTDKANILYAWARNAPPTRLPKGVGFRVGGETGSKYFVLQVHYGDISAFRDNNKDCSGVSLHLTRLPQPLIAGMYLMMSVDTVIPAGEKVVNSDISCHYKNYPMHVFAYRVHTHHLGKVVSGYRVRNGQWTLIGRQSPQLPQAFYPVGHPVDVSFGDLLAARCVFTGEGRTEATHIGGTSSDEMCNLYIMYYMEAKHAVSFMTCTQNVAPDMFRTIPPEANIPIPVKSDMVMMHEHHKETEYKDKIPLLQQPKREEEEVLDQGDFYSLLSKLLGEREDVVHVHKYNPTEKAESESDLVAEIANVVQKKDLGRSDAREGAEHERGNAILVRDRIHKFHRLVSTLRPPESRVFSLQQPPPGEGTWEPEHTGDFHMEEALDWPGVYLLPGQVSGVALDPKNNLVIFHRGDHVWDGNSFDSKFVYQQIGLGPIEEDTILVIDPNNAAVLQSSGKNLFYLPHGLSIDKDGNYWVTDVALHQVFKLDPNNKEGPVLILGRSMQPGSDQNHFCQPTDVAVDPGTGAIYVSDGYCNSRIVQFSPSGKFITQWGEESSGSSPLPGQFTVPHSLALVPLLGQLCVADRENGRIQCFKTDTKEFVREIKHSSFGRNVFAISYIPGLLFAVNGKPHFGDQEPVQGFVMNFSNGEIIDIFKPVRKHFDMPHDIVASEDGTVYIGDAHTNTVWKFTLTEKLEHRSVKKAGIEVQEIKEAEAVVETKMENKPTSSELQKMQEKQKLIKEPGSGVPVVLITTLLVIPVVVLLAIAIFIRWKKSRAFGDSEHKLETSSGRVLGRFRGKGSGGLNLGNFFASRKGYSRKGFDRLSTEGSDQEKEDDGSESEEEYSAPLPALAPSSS
Description: Competitive inhibition of PAM in human DMS53 cells using as(R)-Tyr-(S)-Val-Gly as substrate after 2 hrs by HPLC analysis. Format: cell-based, DMS-53.

The target in assay [2] is T1, Peptidyl-glycine alpha-amidating monooxygenase. Description: Competitive inhibition of secreted PAM in human DMS53 cell culture medium using as(R)-Tyr-(S)-Val-Gly as substrate after 2 hrs by HPLC analysis. More on the design: species or system DMS-53.

Molecules are shown by their SMILES. pIC50: −log10 of the molar value.

Consider `C[C@H](NC(=O)CN)C(=O)N[C@@H](Cc1ccccc1)C(=O)OCC(=O)O`, for which the values for the pIC50 in assay [1] and in assay [2] were 3.25 and 3.80, respectively.

The record behind these values is ChEMBL document CHEMBL2203217, “Prohormone-substrate peptide sequence recognition by peptidylglycine α-amidating monooxygenase and its reflection in increased glycolate inhibitor potency” (Bioorg Med Chem Lett, 2012).
